According to ChEMBL document CHEMBL1201862, “PubChem BioAssay data set” (2004):
“And” between values parts separate entries of the source, which are not always exact repeats. Equal values may be shown once.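 Test compounds were applied to cells in 96-well plates for 48 hours at 5 doses. At the GI50, growth is halved.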 The source made the active and inactive calls. Rule as the data show it: active = GI50 up to about 1.1 µM and inactive = higher.

Tests used:
Experiment in all cases: DTP human tumour cell line panel, 48 h
NCI/ADR-RES = tested on: NCI/ADR-RES
K562 = tested on: K562
UO-31 = tested on: UO-31
BT-549 = tested on: BT-549
UACC-62 = tested on: UACC-62
Hs-578T = tested on: Hs-578T
MDA-N = tested on: MDA-N
HCC 2998 = tested on: HCC 2998
COLO 205 = tested on: COLO 205
SF-268 = tested on: SF-268
OVCAR-5 = tested on: OVCAR-5
SK-MEL-5 = tested on: SK-MEL-5
SK-MEL-28 = tested on: SK-MEL-28
M14 = tested on: M14
HT-29 = tested on: HT-29
PC-3 = tested on: PC-3
SW-620 = tested on: SW-620
EKVX = tested on: EKVX
SF-295 = tested on: SF-295
HCT-15 = tested on: HCT-15
SF-539 = tested on: SF-539
SK-OV-3 = tested on: SK-OV-3
NCI-H226 = tested on: NCI-H226
NCI-H522 = tested on: NCI-H522
OVCAR-3 = tested on: OVCAR-3
NCI-H23 = tested on: NCI-H23
A549 = tested on: A549
HCT-116 = tested on: HCT-116
A498 = tested on: A498
MOLT-4 = tested on: MOLT-4
MCF7 = tested on: MCF7
CCRF-CEM = tested on: CCRF-CEM
KM12 = tested on: KM12
T47D = tested on: T47D
786-0 = tested on: 786-0
Malme-3M = tested on: Malme-3M
NCI-H460 = tested on: NCI-H460
OVCAR-8 = tested on: OVCAR-8
ACHN = tested on: ACHN
SNB-75 = tested on: SNB-75
DU-145 = tested on: DU-145
LOX IMVI = tested on: LOX IMVI
MDA-MB-435 = tested on: MDA-MB-435
SK-MEL-2 = tested on: SK-MEL-2
HOP-92 = tested on: HOP-92
HOP-62 = tested on: HOP-62
CAKI-1 = tested on: CAKI-1
SNB-19 = tested on: SNB-19
SR = tested on: SR
HL-60 = tested on: HL-60
IGROV-1 = tested on: IGROV-1
SN12C = tested on: SN12C
UACC-257 = tested on: UACC-257
OVCAR-4 = tested on: OVCAR-4
TK-10 = tested on: TK-10
MDA-MB-231 = tested on: MDA-MB-231
U-251 = tested on: U-251
RPMI-8226 = tested on: RPMI-8226
RXF 393 = tested on: RXF 393

O=C(NN1C(=O)/C(=C/c2ccc(Cl)cc2)N=C1c1ccccc1)c1c(Cl)c(Cl)c(Cl)c(Cl)c1-c1nc2ccccc2[nH]1
GI50 (NCI/ADR-RES): 15.3 µM (inactive) | GI50 (K562): 4.28 µM (inactive) | GI50 (UO-31): 16.3 µM (inactive) | GI50 (BT-549): 13.4 µM (inactive) | GI50 (UACC-62): 10.7 µM (inactive) | GI50 (Hs-578T): 13.5 µM (inactive) | GI50 (MDA-N): 3.84 µM (inactive) | GI50 (HCC 2998): 8.09 µM (inactive) | GI50 (COLO 205): 22.6 µM (inactive) | GI50 (SF-268): 14.6 µM (inactive) | GI50 (OVCAR-5): 29.1 µM (inactive) | GI50 (SK-MEL-5): 19.7 µM (inactive) | GI50 (SK-MEL-28): 20.3 µM (inactive) | GI50 (M14): 17.3 µM (inactive) | GI50 (HT-29): 27.4 µM (inactive) | GI50 (PC-3): 20.2 µM (inactive) | GI50 (SW-620): 20.6 µM (inactive) | GI50 (EKVX): 19.4 µM (inactive) | GI50 (SF-295): < 10 nM (active) | GI50 (HCT-15): 9.62 µM | GI50 (SF-539): 23.8 µM (inactive) | GI50 (SK-OV-3): < 0.01 µM (active) | GI50 (NCI-H226): 8 µM (inactive) | GI50 (NCI-H522): 18.2 µM (inactive) | GI50 (OVCAR-3): 33 µM (inactive) | GI50 (NCI-H23): 13.4 µM (inactive) | GI50 (A549): 5.98 µM (inactive) | GI50 (HCT-116): 15.6 µM (inactive) | GI50 (A498): 12.9 µM (inactive) | GI50 (MOLT-4): 6.93 µM (inactive) | GI50 (MCF7): 9.91 µM (inactive) | GI50 (CCRF-CEM): 12.1 µM (inactive) | GI50 (KM12): 4.15 µM (inactive) | GI50 (T47D): 0.582 µM (active) | GI50 (786-0): 18.5 µM (inactive) | GI50 (Malme-3M): 20.8 µM (inactive) | GI50 (NCI-H460): < 10 nM (active) | GI50 (OVCAR-8): 27.9 µM (inactive) | GI50 (ACHN): 22.1 µM (inactive) | GI50 (SNB-75): 12.2 µM (inactive) | GI50 (DU-145): 17.7 µM (inactive) | GI50 (LOX IMVI): 8.79 µM (inactive) | GI50 (MDA-MB-435): 2.8 µM (inactive) | GI50 (SK-MEL-2): 18.6 µM (inactive) | GI50 (HOP-92): 11.6 µM (inactive) | GI50 (HOP-62): < 10 nM (active) | GI50 (CAKI-1): 18.9 µM (inactive) | GI50 (SNB-19): 22.1 µM (inactive) | GI50 (SR): 3.58 µM (inactive) | GI50 (HL-60): 18.9 µM (inactive) | GI50 (IGROV-1): 2.47 µM (inactive) | GI50 (SN12C): 24.1 µM (inactive)

COc1ccc(/C=C/C(=O)OC2CC34CCNC35CC(OC5(OC)C2OC)c2ccc(OC)c(O)c24)cc1O (configuration not stated)
GI50 (NCI/ADR-RES): 63 µM (inactive) | GI50 (UO-31): > 100 µM (inactive) | GI50 (BT-549): > 100 µM (inactive) | GI50 (UACC-62): > 100 µM (inactive) | GI50 (UACC-257): > 100 µM (inactive) | GI50 (Hs-578T): > 100 µM (inactive) and 52.2 µM (inactive) | GI50 (MDA-N): > 100 µM (inactive) | GI50 (SF-268): > 100 µM (inactive) | GI50 (OVCAR-5): > 100 µM (inactive) | GI50 (OVCAR-4): > 100 µM (inactive) and 50.6 µM (inactive) | GI50 (SK-MEL-5): 57.3 µM (inactive) | GI50 (SK-MEL-28): 79.4 µM (inactive) | GI50 (M14): > 100 µM (inactive) and 88.7 µM (inactive) | GI50 (SW-620): 58.1 µM (inactive) | GI50 (EKVX): > 100 µM (inactive) | GI50 (SF-295): > 100 µM (inactive) and 62.4 µM (inactive) | GI50 (HCT-15): 58.5 µM | GI50 (SF-539): > 100 µM (inactive) and 87.1 µM (inactive) | GI50 (SK-OV-3): > 100 µM (inactive) | GI50 (NCI-H226): > 100 µM (inactive) | GI50 (NCI-H23): > 100 µM (inactive) and 88.1 µM (inactive) | GI50 (A549): > 100 µM (inactive) | GI50 (A498): > 100 µM (inactive) | GI50 (MCF7): > 100 µM (inactive) and 70 µM (inactive) | GI50 (TK-10): > 100 µM (inactive) | GI50 (T47D): > 100 µM (inactive) | GI50 (NCI-H460): > 100 µM (inactive) and 57.7 µM (inactive) | GI50 (OVCAR-8): > 100 µM (inactive) | GI50 (ACHN): > 100 µM (inactive) and 80.7 µM (inactive) | GI50 (DU-145): > 100 µM (inactive) | GI50 (MDA-MB-435): > 100 µM (inactive) | GI50 (SK-MEL-2): > 100 µM (inactive) | GI50 (HOP-92): 76 µM (inactive) | GI50 (HOP-62): > 100 µM (inactive) and 61.4 µM (inactive) | GI50 (CAKI-1): > 100 µM (inactive) | GI50 (SNB-19): > 100 µM (inactive) | GI50 (HL-60): 24.1 µM (inactive) | GI50 (IGROV-1): > 100 µM (inactive) and 86.3 µM (inactive) | GI50 (SN12C): 55.1 µM (inactive)

CN(C)C(=O)OC(Cn1cncn1)(Cn1cncn1)c1ccc(Cl)cc1Cl
GI50 (NCI/ADR-RES): > 100 µM (inactive) | GI50 (K562): > 100 µM (inactive) | GI50 (UO-31): > 100 µM (inactive) | GI50 (BT-549): > 100 µM (inactive) | GI50 (UACC-257): > 100 µM (inactive) | GI50 (Hs-578T): > 100 µM (inactive) | GI50 (HCC 2998): > 100 µM (inactive) | GI50 (COLO 205): > 100 µM (inactive) | GI50 (SF-268): > 100 µM (inactive) | GI50 (OVCAR-5): > 100 µM (inactive) | GI50 (OVCAR-4): > 100 µM (inactive) | GI50 (SK-MEL-5): > 100 µM (inactive) | GI50 (SK-MEL-28): > 100 µM (inactive) | GI50 (M14): > 100 µM (inactive) | GI50 (HT-29): > 100 µM (inactive) | GI50 (PC-3): > 100 µM (inactive) | GI50 (SW-620): > 100 µM (inactive) | GI50 (EKVX): > 100 µM (inactive) | GI50 (SF-295): > 100000 nM (inactive) | GI50 (HCT-15): > 100 µM | GI50 (SF-539): > 100 µM (inactive) | GI50 (MDA-MB-231): > 100 µM (inactive) | GI50 (SK-OV-3): > 100 µM (inactive) | GI50 (NCI-H226): > 100 µM (inactive) | GI50 (NCI-H522): > 100 µM (inactive) | GI50 (OVCAR-3): > 100 µM (inactive) | GI50 (A549): > 100 µM (inactive) | GI50 (A498): > 100 µM (inactive) | GI50 (MOLT-4): > 100 µM (inactive) | GI50 (MCF7): > 100 µM (inactive) | GI50 (CCRF-CEM): > 100 µM (inactive) | GI50 (TK-10): > 100 µM (inactive) | GI50 (KM12): > 100 µM (inactive) | GI50 (T47D): > 100 µM (inactive) | GI50 (786-0): > 100 µM (inactive) | GI50 (NCI-H460): > 100000 nM (inactive) | GI50 (OVCAR-8): > 100 µM (inactive) | GI50 (SNB-75): > 100 µM (inactive) | GI50 (DU-145): > 100 µM (inactive) | GI50 (U-251): > 100 µM (inactive) | GI50 (LOX IMVI): > 100 µM (inactive) | GI50 (MDA-MB-435): > 100 µM (inactive) | GI50 (SK-MEL-2): 71.8 µM (inactive) | GI50 (RPMI-8226): > 100 µM (inactive) | GI50 (HOP-92): > 100 µM (inactive) | GI50 (HOP-62): > 100000 nM (inactive) | GI50 (CAKI-1): > 100 µM (inactive) | GI50 (SNB-19): > 100 µM (inactive) | GI50 (RXF 393): > 100 µM (inactive) | GI50 (HL-60): > 100 µM (inactive) | GI50 (IGROV-1): > 100 µM (inactive)
